We go through 29 compounds from US20230278981A1, “DICHLOROPHENOL HSD17B13 INHIBITORS AND USES THEREOF” (INIPHARM, INC., priority 2020, published 2023).

The experiment concerns the target HSD17B13 (Homo sapiens (Human), UniProt Q7Z5P4). In words: LC/MS estrone detection assay: conversion of estradiol to estrone by HSD17B13. The class given is biochemical. The conditions noted are these: 4 μM estradiol, 6 mM NAD+, 30 nM HSD17B13 enzyme (E. coli expressed His-tagged), 2 hours at 26.5° C. An outline of the steps: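 His-tagged E. coli-expressed HSD17B13 (30 nM) with 4 μM estradiol and 6 mM NAD+ in 1 M potassium phosphate pH 7.4, 0.5% DMSO, 2 h at 26.5° C. Estrone and estradiol quantified by LC-MS/MS after MeCN quench with D4-estrone internal standard; activity as % of uninhibited enzyme, IC50 by four-parameter fit, duplicates.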

Structures are written as SMILES.

HSD17B13, sequence (Q7Z5P4 20-300): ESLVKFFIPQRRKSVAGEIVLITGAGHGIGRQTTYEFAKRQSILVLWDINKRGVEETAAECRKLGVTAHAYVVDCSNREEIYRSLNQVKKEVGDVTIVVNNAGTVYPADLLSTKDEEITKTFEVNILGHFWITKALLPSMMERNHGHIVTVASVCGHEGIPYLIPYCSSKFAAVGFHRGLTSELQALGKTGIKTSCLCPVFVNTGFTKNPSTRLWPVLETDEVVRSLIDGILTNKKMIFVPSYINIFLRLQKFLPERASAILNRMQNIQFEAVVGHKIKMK

On to `Cc1ccc(NC(=O)c2cc(Cl)c(O)c(Cl)n2)c2c(=O)n(Cc3ncccc3C(F)(F)F)c(C(F)F)nc12` [Example 177, 4,6-dichloro-N-(2-(difluoromethyl)-8-methyl-4-oxo-3-((3-(trifluoromethyl)pyridin-2-yl)methyl)-3,4-dihydroquinazolin-5-yl)-5-hydroxypicolinamide], for which the IC50 (commonly the concentration that inhibits the measured activity by half) was 100 to 500 nM.

With `Cc1ccc(NC(=O)c2cc(Cl)c(O)c(Cl)n2)c2c(=O)n(Cc3ncccc3Cl)c(C)nc12` [Example 178, 4,6-dichloro-N-(3-((3-chloropyridin-2-yl)methyl)-2,8-dimethyl-4-oxo-3,4-dihydroquinazolin-5-yl)-5-hydroxypicolinamide], the IC50 lay in the range of 500 to 1000 nM.

With `[2H]C([2H])([2H])c1nc2c(C)ccc(NC(=O)c3cc(Cl)c(O)c(Cl)c3)c2c(=O)n1Cc1ccccc1C(F)(F)F` [Example 179, 3,5-dichloro-4-hydroxy-N-(8-methyl-2-(methyl-d3)-4-oxo-3-(2-(trifluoromethyl)benzyl)-3,4-dihydroquinazolin-5-yl)benzamide], the IC50 is at most 100 nM.

`[2H]C([2H])([2H])c1nc2c(C)ccc(NC(=O)c3cc(Cl)c(O)c(Cl)n3)c2c(=O)n1Cc1ccccc1C(F)(F)F` [Example 180, 4,6-dichloro-5-hydroxy-N-(8-methyl-2-(methyl-d3)-4-oxo-3-(2-(trifluoromethyl)benzyl)-3,4-dihydroquinazolin-5-yl)picolinamide]: the IC50 was in the range of 100 to 500 nM.

Take `Cc1ccc(NC(=O)c2cc(Cl)c(O)c(Cl)n2)c2c(=O)n(Cc3ccccc3C(F)(F)F)c(C(F)F)nc12` [Example 181, 4,6-dichloro-N-(2-(difluoromethyl)-8-methyl-4-oxo-3-(2-(trifluoromethyl)benzyl)-3,4-dihydroquinazolin-5-yl)-5-hydroxypicolinamide]: the concentration for half-maximal inhibition (IC50) fell in the range of 100 to 500 nM.

For the compound `O=C(Nc1scnc1C(=O)NCc1ccccc1C(F)(F)F)c1cc(Cl)c(O)c(Cl)c1` [Example 182, 5-(3,5-dichloro-4-hydroxybenzamido)-N-(2-(trifluoromethyl)benzyl)thiazole-4-carboxamide], the IC50 was at most 100 nM.

For the compound `Cc1ccc(NC(=O)c2cc(Cl)c(O)c(Cl)c2)c2c(=O)n(Cc3ncccc3F)c(C)nc12` [Example 183, 3,5-dichloro-N-(3-((3-fluoropyridin-2-yl)methyl)-2,8-dimethyl-4-oxo-3,4-dihydroquinazolin-5-yl)-4-hydroxybenzamide], the half-maximal inhibitory concentration (IC50) was 100 to 500 nM.

The compound `[2H]C([2H])([2H])c1nc2c(F)ccc(NC(=O)c3cc(Cl)c(O)c(Cl)n3)c2c(=O)n1Cc1ccccc1C(F)(F)F` [Example 184, 4,6-dichloro-N-(8-fluoro-2-(methyl-d3)-4-oxo-3-(2-(trifluoromethyl)benzyl)-3,4-dihydroquinazolin-5-yl)-5-hydroxypicolinamide] yielded an IC50 of 100 to 500 nM.

In turn, `Cc1ccc(NC(=O)c2cc(Cl)c(O)c(Cl)c2)c2c(=O)n(Cc3ccccc3C(F)(F)F)c(CF)nc12` [Example 186, 3,5-dichloro-N-(2-(fluoromethyl)-8-methyl-4-oxo-3-(2-(trifluoromethyl)benzyl)-3,4-dihydroquinazolin-5-yl)-4-hydroxybenzamide] gave an IC50 of at most 100 nM.

The compound `Cn1nc(CNC(=O)c2ncsc2NC(=O)c2cc(Cl)c(O)c(Cl)n2)c2ccccc21` [Example 187, 5-(4,6-dichloro-5-hydroxypicolinamido)-N-((1-methyl-1H-indazol-3-yl)methyl)thiazole-4-carboxamide] came in with a half-inhibitory concentration (IC50) of 100 to 500 nM.

Regarding `Cn1nc(CNC(=O)c2ncsc2NC(=O)c2cc(Cl)c(O)c(Cl)c2)c2ccccc21` [Example 188, 5-(3,5-dichloro-4-hydroxybenzamido)-N-((1-methyl-1H-indazol-3-yl)methyl)thiazole-4-carboxamide], the IC50 is at most 100 nM.

In turn, `O=C(Nc1scnc1C(=O)NCc1cccc(F)c1)c1cc(Cl)c(O)c(Cl)n1` [Example 189, 5-(4,6-dichloro-5-hydroxypicolinamido)-N-(3-fluorobenzyl)thiazole-4-carboxamide] showed an IC50 of 100 to 500 nM.

For `Cc1nc2c(F)ccc(NC(=O)c3cc(Cl)c(O)c(Cl)c3)c2c(=O)n1Cc1nn(C)c2ccccc12` [Example 190, 3,5-dichloro-N-(8-fluoro-2-methyl-3-((1-methyl-1H-indazol-3-yl)methyl)-4-oxo-3,4-dihydroquinazolin-5-yl)-4-hydroxybenzamide], the half-maximal inhibitory concentration (IC50) was at most 100 nM.

In turn, `O=C(Nc1scnc1C(=O)NCc1ccccc1OC(F)(F)F)c1cc(Cl)c(O)c(Cl)n1` [Example 191, 5-(4,6-dichloro-5-hydroxypicolinamido)-N-(2-(trifluoromethoxy)benzyl) thiazole-4-carboxamide] returned a half-inhibitory concentration (IC50) of at most 100 nM.

With `O=C(Nc1scnc1C(=O)NCc1ccccc1C(F)(F)F)c1cc(Cl)c(O)c(Cl)n1` [Example 192, 5-(4,6-dichloro-5-hydroxypicolinamido)-N-(2-(trifluoromethyl)benzyl)thiazole-4-carboxamide], the half-inhibitory concentration (IC50) was 100 to 500 nM.

As for `O=C(Nc1scnc1C(=O)NCc1cccc(C(F)(F)F)n1)c1cc(Cl)c(O)c(Cl)n1` [Example 193, 5-(4,6-dichloro-5-hydroxypicolinamido)-N-((6-(trifluoromethyl)pyridin-2-yl)methyl)thiazole-4-carboxamide], the 50% inhibitory concentration (IC50) lay in the range of 500 to 1000 nM.

As to `Cc1nc2c(F)ccc(NC(=O)c3cc(Cl)c(O)c(Cl)n3)c2c(=O)n1Cc1nn(C)c2ccccc12` [Example 194, 4,6-dichloro-N-(8-fluoro-2-methyl-3-((1-methyl-1H-indazol-3-yl)methyl)-4-oxo-3,4-dihydroquinazolin-5-yl)-5-hydroxypicolinamide], the IC50 lay within 100 to 500 nM.

Take `Cc1ccc(NC(=O)c2cc(Cl)c(O)c(Cl)n2)c2c(=O)n(Cc3ncccc3F)c(C)nc12` [Example 195, 4,6-dichloro-N-(3-((3-fluoropyridin-2-yl)methyl)-2,8-dimethyl-4-oxo-3,4-dihydroquinazolin-5-yl)-5-hydroxypicolinamide]: the IC50 is 1000 to 10000 nM.

Compound `O=C(Nc1scnc1C(=O)NCc1ncccc1C(F)(F)F)c1cc(Cl)c(O)c(Cl)n1` [Example 196, 5-(4,6-dichloro-5-hydroxypicolinamido)-N-((3-(trifluoromethyl)pyridin-2-yl)methyl)thiazole-4-carboxamide] came in with an IC50 of 100 to 500 nM.

In turn, `Cc1nc2c(F)ccc(NC(=O)c3cc(Cl)c(O)c(Cl)c3)c2c(=O)n1Cc1cccc(C(F)(F)F)n1` [Example 197, 3,5-dichloro-N-(8-fluoro-2-methyl-4-oxo-3-((6-(trifluoromethyl)pyridin-2-yl)methyl)-3,4-dihydroquinazolin-5-yl)-4-hydroxybenzamide] returned an IC50 of 500 to 1000 nM.

The compound `O=C(Nc1scnc1C(=O)NCc1cccc(C(F)(F)F)n1)c1cc(Cl)c(O)c(Cl)c1` [Example 198, 5-(3,5-dichloro-4-hydroxybenzamido)-N-((6-(trifluoromethyl)pyridin-2-yl)methyl)thiazole-4-carboxamide] came in with an IC50 of 500 to 1000 nM.

Take `Cc1ccc(NC(=O)c2cc(Cl)c(O)c(Cl)c2)c2c(=O)n(Cc3cccc(C(F)(F)F)n3)c(C)nc12` [Example 199, 3,5-dichloro-N-(2,8-dimethyl-4-oxo-3-((6-(trifluoromethyl)pyridin-2-yl)methyl)-3,4-dihydroquinazolin-5-yl)-4-hydroxybenzamide]: the 50% inhibitory concentration (IC50) fell in the range of 500 to 1000 nM.

As for `[2H]C([2H])(c1ccccc1C(F)(F)F)n1c(C)nc2c(C)ccc(NC(=O)c3cc(Cl)c(O)c(Cl)c3)c2c1=O` [Example 200, 3,5-dichloro-N-(2,8-dimethyl-4-oxo-3-((2-(trifluoromethyl)phenyl)methyl-d2)-3,4-dihydroquinazolin-5-yl)-4-hydroxybenzamide], the IC50 is at most 100 nM.

Compound `[2H]C([2H])(c1ccccc1C(F)(F)F)n1c(C)nc2c(C)ccc(NC(=O)c3cc(Cl)c(O)c(Cl)n3)c2c1=O` [Example 201, 4,6-dichloro-N-(2,8-dimethyl-4-oxo-3-{[2-(trifluoromethyl)phenyl](^2H2)methyl}-3,4-dihydroquinazolin-5-yl)-5-hydroxypyridine-2-carboxamide] came in with a 50% inhibitory concentration (IC50) of 100 to 500 nM.

Regarding `Cc1ccc(NC(=O)c2cc(Cl)c(O)c(Cl)n2)c2c(=O)n([C@@H]3CC[C@H]3c3ccccc3)c(C)nc12` [Example 202, 4,6-dichloro-N-(2,8-dimethyl-4-oxo-3-((1R,2S)-2-phenylcyclobutyl)-3,4-dihydroquinazolin-5-yl)-5-hydroxypicolinamide], the half-inhibitory concentration (IC50) fell in the range of 100 to 500 nM.

With `Cc1ccc(NC(=O)c2cc(Cl)c(O)c(Cl)c2)c2c(=O)n([C@@H]3CC[C@H]3c3ccccc3)c(C)nc12` [Example 203, 3,5-dichloro-N-(2,8-dimethyl-4-oxo-3-((1R,2S)-2-phenylcyclobutyl)-3,4-dihydroquinazolin-5-yl)-4-hydroxybenzamide], the IC50 was at most 100 nM.

Compound `O=C(Nc1ccc(F)c2ncn(Cc3ccccc3C(F)(F)F)c(=O)c12)c1cc(Cl)c(O)c(Cl)c1` [Example 204, 3,5-dichloro-N-(8-fluoro-4-oxo-3-(2-(trifluoromethyl)benzyl)-3,4-dihydroquinazolin-5-yl)-4-hydroxybenzamide] gave a half-inhibitory concentration (IC50) of at most 100 nM.

`Cc1ccc(NC(=O)c2cc(Cl)c(O)c(Cl)n2)c2c(=O)n(Cc3cccc(C(F)(F)F)n3)c(C)nc12` [Example 205, 4,6-dichloro-N-(2,8-dimethyl-4-oxo-3-((6-(trifluoromethyl)pyridin-2-yl)methyl)-3,4-dihydroquinazolin-5-yl)-5-hydroxypicolinamide] registered an IC50 of 500 to 1000 nM.

Take `O=C(Nc1ccc(F)c2ncn(Cc3ccccc3C(F)(F)F)c(=O)c12)c1cc(Cl)c(O)c(Cl)n1` [Example 206, 4,6-dichloro-N-(8-fluoro-4-oxo-3-(2-(trifluoromethyl)benzyl)-3,4-dihydroquinazolin-5-yl)-5-hydroxypicolinamide]: the IC50 is at most 100 nM.
